In US20250129045A1, “SMALL MOLECULE PIM AND MTOR KINASE INHIBITOR AND METHODS OF USE THEREOF” (Arizona Board of Regents on Behalf of the University of …, priority 2022, published 2025):
“Also recorded” adds a separate entry of the source.

Key:
[1] = tested on: PANC1 pancreatic cancer cells; experiment: Growth inhibition of PANC1 pancreatic cancer cells; type: cell-based
Experimental: (§1) Cell growth assay: Tumor cells were seeded into 48 well plates (1000 cells/well) and treated with varied agents. The Incucyte real-time imaging system (Incucyte) was used to measure cell proliferation using a non-label cell monolayer confluence approach. The images were captured every 12 h. Graphs were generated using an integrated confluence metric as an alternative for cell numbers. At the end of the study cell growth was visualized by crystal violet staining.
(§2) Because of ease of growth, PANC1 pancreatic cancer cells were used to test the activity of derivatives of VBT-5445 (FIG. 14). […] Using a doxycycline inducible Pim kinase vector in these tumor cells, this inhibition of phosphorylation was proportional to the level of Pim in these cells (FIG. 9). […] Inhibition of mTORC1 is known to stimulate the feedback activation of mTORC2 leading to AKT phosphorylation. […] The effect of these compounds on mTORC1 and 2 was still evident in PC3-LN4 cells that contained a knockout (KO) using CRISPR/CAS9 of either TSC2 or DEPDC5 (FIG. 12, lanes 4-9). TSC2 KO activated the Rheb GTPase while DEPDC5 KO activated the RAG GTPase both of which stimulate mTORC1 activity. Thus, GRG compounds were capable of inhibiting mTORC1 activity even when this kinase was highly activated.

Acetyl CoA carboxylase = Acetyl CoA carboxylase phosphorylation in LNCaP cells (Western blot); type: cell-based; conditions: LNCaP prostate cancer cell line
Experimental: LNCaP cells were treated in a 6 well plate with GRG-1-35 for the indicated times. Cells were scrapped and protein extracts subjected to SDS-PAGE and Western blotted with the antibodies shown.

mTORC = experiment: Phosphorylation of mTORC substrates in PANC1 cells (Western blot); type: cell-based; conditions: overnight incubation, FIG. 19
Experimental: (§3) Immunoblotting: Western blots were performed as described previously. Briefly, protein lysates (30 μg) were subjected to SDS-PAGE and transferred to nitrocellulose membranes. After blocking with 5% milk in TBST buffer for 30 min at room temperature, the membranes were incubated overnight at 4° C. with the Indicated primary antibody in 3% BSA in TBST. Specific proteins were detected with the corresponding HRP conjugated secondary antibody using enhanced chemiluminescence (GE Lifesciences, Piscataway, NJ).
as §2

Pim1 and EDC3 binding = Pim1 and EDC3 binding (Homo sapiens, UniProt P11309); experiment: In vitro co-precipitation / co-immunoprecipitation of EDC3 with Pim1; conditions: VBT-5445 at concentrations higher than 1 μM
Experimental: (§4) FIGS. 7A-7I show inhibition of VBT5445 (VBT) on Pim1 and EDC3 binding and phosphorylation. FIG. 7A: In vitro co-precipitation (Co-PPT) assay was performed with recombinant EDC3 and biotinylated Pim1 using Streptavidin beads with increasing concentrations of the Pim inhibitor VBT5445 (VBT). FIG. 7B: Kinase assays were performed with recombinant EDC3 and Pim1 with increasing concentrations of VBT. FIG. 7C: Cell lysates from PC3-LN4 cells cultured with DMSO, 10 μM VBT, 3 μM AZD5363 (AKTi) and the combination for 6 hrs were subjected to western blotting (WB). […] WBs were performed using the indicated antibodies. FIG. 7E: PC3-LN4 cells were seeded into 48 well plate and incubated with either DMSO, VBT, AZD5363 or the combination, for 4.5 days. A real-time imaging system (IncuCyte™) was used to measure cell proliferation using a non-label cell monolayer confluence approach. FIG. 7F-7H: GFP image in PC3 LN4 GFP EDC3 expressing cells treated with PIMi: VBT (5 μM) and VBT (5 μM)+AZD5363 (3 μM) for 6 hrs.

PC3-LN4 cells [2] = experiment: Western blotting of PC3-LN4 cell lysates; type: cell-based, human
Experimental: as §4, with “FIG.” for “FIGS. 7A-7I show inhibition of VBT5445 (VBT) on Pim1 and EDC3 binding and phosphorylation. FIG.”
Extracts were subjected to Western blotting with the indicated antibodies.
as §3

Pim1 [3] = molecular target: T1, Pim1 (Homo sapiens, UniProt P11309); experiment: Surface plasmon resonance (SPR) binding of VBT5445 to Pim1; conditions: 500 nM PIM447 vs DMSO
Experimental: as §4
A virtual screening effort was mounted to find chemicals that interact outside of ATP binding site of Pim screening over 100,000 compounds followed by testing the top 303 by Surface Plasmon Resonance (SPR). Synthesis of the most likely candidate was achieved by the Arizona Center for Drug Discovery at the University of Arizona. […]

PC3-LN4 cells [4] = experiment: Cell growth assay (IncuCyte) in PC3-LN4 prostate cancer cells; type: cell-based, human; conditions: for prostate cancer (PC3-LN4) growth, in combination with AKT/PI3K inhibitor: combination with AZD5363 or BKM120
Experimental: as §4, §1

[5] = Tolerability by gavage in mice; type: in vivo; conditions: 30 mg/kg by gavage in combination with AZD5363 40 mg/kg
Source text: Maximum Tolerated Dose and Side Effect Profile. […] To obtain the maximum tolerated dose (MTD), the dose will be increased by 50% over the previous one at each ensuing treatment consisting of 3 mice given daily for 5 days. Mice will be observed for fur ruffling and behavior changes. Blood will be drawn, and the WBC count and blood chemistry will be determined to evaluate bone marrow, liver, and kidney toxicity. Together with pharmacokinetic profiling, this analysis will help determine the best dose and frequency of administration for this molecule.

Pim1 [6] = molecular target: T1, Pim1; experiment: Kinase assay with purified Pim1 and EDC3 (EDC3 S161 phosphorylation); type: biochemical; conditions: concentration of 1 μM
Experimental: as §4
Computer screening followed by surface plasmon resonance (SPR) yielded a lead compound VBT-5445 that can interact with the Pim-1 protein kinase. Enhancer of mRNA Decapping 3 (EDC3) is a substrate of the Pim kinase that regulates the decapping of messenger RNA, and its activity is modulated by Pim mediated phosphorylation. […]

[7] = tested on: T-cell acute lymphoblastic leukemia cell line DU528; experiment: Cell viability (XTT) assay in T-ALL cells; type: cell-based; conditions: 72 h
Experimental: Cell viability (XTT) assay: T-ALL cells were seeded into 96 well plates at a density of 20,000 cells per well and treated with VBT-5445 for 72 h, using DMSO as control. Cell viability was measured using XTT cell proliferation assay (Trevigen Cat #4891-025-K) following the manufacturer's protocol. Briefly, XTT reagent was added to cell culture after the treatment and incubated for 4 h at 37° C. and 5% CO2. The absorbance of the colored formazan product was measured at 450 nm.

PC3-LN4 cells [8] = experiment: P-body (PB) number in PC3-LN4 GFP-EDC3 cells; type: cell-based, human; conditions: 6 h
Experimental: as §4
To measure PB numbers, PC3-LN4 PCa cells containing a CRISPR/Cas total knock-out of EDC3 were stably transduced with GFP-EDC3. When localized in PBs, GFP spots could be quantified. PBs were quantified at the University of Colorado Center for Drug Discovery using an Opera Phenix Plus high content screening system (PerkinElmer) Perkin Elmer G3 robotic system after drug treatment. Assays were carried out in quadruplicate and the mean number of PBs per cell and cell area calculated. An example of this assay is shown using […] buffered saline (HBSS) to induce PB formation.
Immunofluorescence: Immunofluorescence (IF) staining was performed on PC3-LN4 cells stably expressing EDC3-GFP. 1×10^4 cells were seeded in each chamber of an 8 well chamber slide (Nunc Lab-Tek II Chamber Slide System, Life Technologies) and cultured for 48 h. After attaching to the chamber slides cells were treated with DMSO, VB-5445 ([…]), AZD5363 (3 μM), or the combination for 6 h. Cells were then fixed with 4% paraformaldehyde in PBS for 15 min and subsequently permeabilized with 0.2% Triton X-100 in PBS. Cells were stained with diluted DAPI (1:4000) in 1% nor-mal goat serum in PBS. Cells were mounted with Prolong Gold Antifade mounting medium (Molecular Probes).

T1 sequence (P11309 whole entry): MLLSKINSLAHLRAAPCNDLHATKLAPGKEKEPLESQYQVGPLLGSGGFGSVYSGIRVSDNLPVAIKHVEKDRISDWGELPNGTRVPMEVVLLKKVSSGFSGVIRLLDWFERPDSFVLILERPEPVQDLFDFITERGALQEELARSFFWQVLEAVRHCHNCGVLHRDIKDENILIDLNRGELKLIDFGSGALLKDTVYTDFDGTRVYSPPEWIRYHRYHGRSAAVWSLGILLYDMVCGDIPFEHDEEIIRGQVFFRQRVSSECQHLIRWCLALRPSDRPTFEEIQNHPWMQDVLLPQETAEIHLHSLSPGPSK
Pim1 and EDC3 binding, sequence (P11309 whole entry): as above

SMILES: O=c1c(CNCc2cc(Cl)ccn2)cc2ccc(Cl)cc2n1CCOc1ccccc1 [GRG-1-35]
- growth inhibitory activity against PANC1 pancreatic cancer cells [1]: most active
- phosphorylation of acetyl CoA carboxylase (Acetyl CoA carboxylase): Induction; also recorded: increased the phosphorylation of acetyl CoA carboxylase
- block of phosphorylation of mTORC substrates (AKT, 4E-BP1, S6) (mTORC): block the phosphorylation of mTORC substrates

SMILES: O=c1c(CNCc2cccnc2)cc2ccc(Cl)cc2n1CCOc1ccccc1 [VBT5445]
- co-immunoprecipitation of EDC3 with Pim (Pim1 and EDC3 binding): blocked the ability of Pim1 to coimmunoprecipitate with EDC3
- ITGB1 protein level, combination with AZD5363 (AKTi) (PC3-LN4 cells [2]): reduced
- cellular level of Pim kinases (PC3-LN4 cells [2]): decreases the level of all Pim kinases
- cellular level of c-Myc protein (PC3-LN4 cells [2]): decrease
- mTORC1 activity: phosphorylation of the S6 protein (PC3-LN4 cells [2]): blocked mTORC1 activity
- increase of binding to Pim1 when PIM447 was added and bound to the ATP site (Pim1 [3]): 3 fold
- prostate cancer (PC3-LN4) growth, in combination with AKT/PI3K inhibitor (PC3-LN4 cells [4]): more active in inhibiting cancer growth
- prostate cancer (PC3-LN4) growth, in combination with AKT/PI3K inhibitor (PC3-LN4 cells [4]; listed as VBT): markedly inhibits the growth
- growth in culture of PC3-LN4 cells (PC3-LN4 cells [4]; compound alone): markedly inhibits the growth
- weight loss or behavior changes [5]: without any weight loss or behavior changes
- inhibition of EDC3 serine 161 phosphorylation by Pim1 (Pim1 [6]): inhibited EDC3 phosphorylation
- growth of T-acute lymphoblastic leukemia cells [7]: inhibited the growth
- number of P-bodies, with AKT inhibitor AZD5363 added (PC3-LN4 cells [8]; combination with AZD5363 (3 μM)): further increased these numbers; also recorded: further increase P-body formation
- number of P-bodies (PC3-LN4 cells [8]; compound alone): increased PB numbers; also recorded: induces increased numbers of P-bodies
